PubChem BioAssay (NCI)
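Exposure lasted 48 hours, with cells grown in 96-well plates and compounds tested at five concentrations. At the TGI there is no net growth.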

Tests used:
Assay in all cases: inhibition of tumour cell growth, NCI panel, 48 h
[1] = system: SW-620 colon
[2] = system: SF-295 CNS
[3] = system: SK-MEL-28 melanoma
[4] = system: MALME-3M melanoma
[5] = system: SNB-75 CNS
[6] = system: SNB-19 CNS
[7] = system: DU-145 prostate
[8] = system: OVCAR-4 ovarian
[9] = system: UACC-62 melanoma
[10] = system: UO-31 renal
[11] = system: M14 melanoma

Compound	TGI [1] [µM]	TGI [2] [µM]	TGI [3] [µM]	TGI [4] [µM]	TGI [5] [µM]	TGI [6] [µM]	TGI [7] [µM]	TGI [8] [µM]	TGI [9] [µM]	TGI [10] [µM]	TGI [11] [µM]
COc1ccc(-n2c(CCCC(=O)O)nc3c2C(=O)c2ccccc2C3=O)cc1	> 100	> 100	> 100	59.7	> 100	> 100	> 100	> 100	> 100	> 100	39
O=C(Cc1ccc(Cl)c(Cl)c1)NCCCN1CCN(CCCN2CCCCC2)CC1	46.7	37.7	4.95	34.7	49.3	63.9	> 100	> 100	13.8	3.63	43.1
O=[N+]([O-])/C(C(Cl)=C(Cl)Cl)=C1\Nc2ccccc2O1	> 100	> 100	> 100	> 100	64.8	> 100	> 100	> 100	> 100	30.6	> 100
COc1ccc(NC(=S)NN=C(C)c2cccc(C(C)=NNC(=S)Nc3ccc(OC)cc3)n2)cc1	> 100	> 100	> 100	> 100	> 100	> 100	> 100	> 100	> 100	> 100	> 100
CCOn1cc(C[C@@]2(O)C(=O)OC3[C@@H](O)CO[C@@]32O)c2ccccc21 (stereo partly specified)	> 100	> 100	> 100	> 100	> 100	> 100	> 100	> 100	> 100	> 100	> 100
COc1ccc(C2CC(c3cc4c(C)c(C(=O)c5ccccc5)oc4cc3O)=Nc3ccccc3S2)cc1OC (stereo unspecified)	> 100	> 100	> 100	> 100	> 100	> 85.8	> 100	> 48.9	> 85.8	> 100	> 100
CCOC(=O)C(NCc1ccccc1)(NC(=O)c1ccccc1)C(F)(F)F (stereo unspecified)	> 100	> 100	> 100	> 100	> 100	> 100	> 100	> 100	> 100	> 100	> 100
C=C(NC(=O)C(=C)NC(=O)c1csc(C2=NC3c4csc(n4)C4NC(=O)c5csc(n5)C(C(C)(O)C(C)O)NC(=O)C5CSC(=N5)/C(=C/C)NC(=O)C(C(C)O)NC(=O)c5csc(n5)C3(CC2)NC(=O)C(C)NC(=O)C(=C)NC(=O)C(=C)NC(=O)C(C(C)C)NC2C=Cc3c(C(C)O)cc(nc3C2O)C(=O)OC4C)n1)C(N)=O (stereo unspecified)	> 100	> 100	> 62.1	0.786	> 100	65.4	> 72.4	> 83.5	4.15	> 100	> 28.5
CCOC(=O)c1nc2c3c(ncn2n1)Oc1c(c(-c2ccccc2)nn1-c1ccccc1)C3c1ccc(OC)c(OC)c1 (stereo unspecified)	> 100	> 100	> 100	> 100	66.6	82.4	> 100	30.4	> 100	> 100	> 100
COc1c(C2(c3ccc(F)cc3)SCCCS2)c(=O)c1=O	> 100	> 100	> 100	> 100	> 100	> 100	> 100	> 100	> 100	> 100	> 100
NC1=CN(CCCO)C2=N/C(=C\c3ccco3)C(=O)N12	> 100	> 100	> 100	> 100	> 100	> 100	> 100	> 100	> 100	> 100	> 100
